# Measurements published in publication PMC10374108, “Structural and biochemical characterization of the key components of an auxin degradation operon from the rhizosphere bacterium Variovorax” (PLOS Biology, 2023).
# Where “and” joins values, the source holds several entries; their conditions need not be identical. Identical values can stand only once.
# Experiments:
# [1] = target: IadF (Variovorax paradoxus, UniProt A0A0H2MF82); assay: ITC, IAA binding to IadF; parameters: species or system Variovorax paradoxus CL14
# Method: (§1) ITC experiments were performed using a MicroCal PEAQ-ITC system (Malvern). All the experiments were performed at […] in a buffer containing 25 mM Tris-HCl (pH 7.5) and 150 mM NaCl (unless otherwise stated). […] Data was analyzed using the MicroCal PEAQ-ITC analysis software. All the measurements were repeated at least 2 times.
# [2] = test system: IadK3; assay: Thermal shift assay (TSA), IadK3 with IAA and analogs; assay type: binding, Variovorax paradoxus CL14; details: IadK3 with IAA, replicates
# Method: Ligands concentrations were tested at 2- to […] excess (10 to 1,000 μM) relative to the proteins (5 μM). The fluorescence dye SYPRO Orange at a final of 200-fold dilution was used to monitor the unfolding of proteins. The protein and ligand were incubated for 10 min at room temperature before the addition of SYPRO Orange dye. The QuantStudio 1 Plus real-time PCR system (Thermo Fisher) was used to control the temperature increasing from […] to […] with an increment of […] and to monitor the fluorescence (excitation: 520 ± 10 nm and emission: 558 ± 10 nm). Each tested group was run in triplicate and repeated. Data was imported to the Protein Thermal Shift software for analysis and plotting.
# [3] = target: IadK2 mutants (Variovorax paradoxus, UniProt T1X8R6, S104V/W172L); assay: ITC, IAA binding to IadK2 mutants; parameters: species or system Variovorax paradoxus CL14
# Method: as §1
# [4] = target: IadK2 mutants (Variovorax paradoxus, UniProt T1X8R6, W172A); assay: ITC, IAA binding to IadK2 mutants; parameters: species or system Variovorax paradoxus CL14; details: IadK2 mutant W172A, replicates
# Method: as §1
# [5] = target: IadK2 mutants (Variovorax paradoxus, UniProt T1X8R6, Y311A); assay: ITC, IAA binding to IadK2 mutants; parameters: species or system Variovorax paradoxus CL14; details: Kd
# Method: as §1
# [6] = target: IadK2 mutants (Variovorax paradoxus, UniProt T1X8R6, R199A); assay: ITC, IAA binding to IadK2 mutants; parameters: species or system Variovorax paradoxus CL14; details: Kd
# Method: as §1
# Sequence of IadK2 mutants (Variovorax paradoxus, UniProt T1X8R6, Y311A) (T1X8R6 entry or part of it Y311A): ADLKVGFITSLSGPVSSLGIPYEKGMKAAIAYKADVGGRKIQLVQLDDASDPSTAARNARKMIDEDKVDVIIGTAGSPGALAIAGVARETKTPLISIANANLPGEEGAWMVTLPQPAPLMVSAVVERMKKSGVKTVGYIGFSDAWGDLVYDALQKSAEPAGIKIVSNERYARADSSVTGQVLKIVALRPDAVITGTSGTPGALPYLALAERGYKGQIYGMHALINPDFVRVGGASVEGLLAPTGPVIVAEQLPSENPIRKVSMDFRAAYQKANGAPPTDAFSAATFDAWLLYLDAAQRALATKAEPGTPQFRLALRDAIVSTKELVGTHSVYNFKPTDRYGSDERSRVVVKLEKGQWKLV
# Sequence of IadF (A0A0H2MF82 entry or part of it): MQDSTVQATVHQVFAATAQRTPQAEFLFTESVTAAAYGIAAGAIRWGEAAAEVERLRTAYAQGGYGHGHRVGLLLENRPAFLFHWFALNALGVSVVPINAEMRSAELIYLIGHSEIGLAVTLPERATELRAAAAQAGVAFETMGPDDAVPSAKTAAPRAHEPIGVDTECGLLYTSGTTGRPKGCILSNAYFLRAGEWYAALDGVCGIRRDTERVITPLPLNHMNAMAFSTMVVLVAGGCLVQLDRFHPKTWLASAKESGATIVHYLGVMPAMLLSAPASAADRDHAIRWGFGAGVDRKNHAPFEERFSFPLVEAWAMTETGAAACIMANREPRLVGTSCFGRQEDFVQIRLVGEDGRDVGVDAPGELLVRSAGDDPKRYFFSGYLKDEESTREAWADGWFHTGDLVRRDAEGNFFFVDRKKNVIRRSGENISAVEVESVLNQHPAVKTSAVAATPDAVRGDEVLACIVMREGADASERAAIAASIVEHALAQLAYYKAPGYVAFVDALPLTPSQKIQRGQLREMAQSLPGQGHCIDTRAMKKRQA
# Sequence of IadK2 mutants (Variovorax paradoxus, UniProt T1X8R6, W172A) (T1X8R6 entry or part of it W172A): as the sequence (T1X8R6 entry or part of it Y311A) above, with W145A, A284Y counted along it
# Sequence of IadK2 mutants (Variovorax paradoxus, UniProt T1X8R6, R199A) (T1X8R6 entry or part of it R199A): as the sequence (T1X8R6 entry or part of it Y311A) above, with R172A, A284Y counted along it
# Sequence of IadK2 mutants (Variovorax paradoxus, UniProt T1X8R6, S104V/W172L) (T1X8R6 entry or part of it S104V/W172L): as the sequence (T1X8R6 entry or part of it Y311A) above, with S77V, W145L, A284Y counted along it
compound,measurement,setting,value
"O=C(O)Cc1c[nH]c2ccccc12 [IAA, indole-3-acetic acid]",IAA binding (ITC),[1],no binding detected
same,Kd,"[1]; ITC, replicates",> 100 µM
same,ΔTm,[2],0.997 °C and -0.4983 °C and -0.9966 °C
same,Kd,"[3]; IadK2 mutant W172L/S104V, replicates",> 100 µM
same,Kd,"[3]; Kd, IadK2 W172L/S104V, IAA",> 100 µM
same,Kd,"[3]; Kd, IadK2 mutant W172L/S104V, replicates",> 100 µM
same,Kd,[4],> 100 µM
same,Kd,[4]; Kd,> 100 µM
same,Kd,"[5]; IadK2 Y311A, IAA, mean ± SD",21 ± 3 µM
same,Kd,"[5]; IadK2 mutant Y311A, replicates",17 µM and 24 µM and 22 µM
same,Kd,"[6]; IadK2 R199A, IAA, mean ± SD",11.2 ± 1.8 µM
same,Kd,"[6]; IadK2 mutant R199A, replicates",9.5 µM and 10.4 µM
